A melting point compilation (Tetko et al.; mined from patent text by program, amines drawn as free bases though some values may be those of a salt)

`CNC(=O)c1ccc(NC(=O)OC(C)(C)C)cc1` showed a melting point of 185 °C. Molecule `COc1cc(NC(=O)Nc2c(-c3ccccc3C)c3cc4c(cc3oc2=O)CCC4)cc(OC)c1O` has a melting point of 176 to 179 °C. Molecule `O=[N+]([O-])c1ccc(SCCn2cnnc2)cc1` has a melting point of 162 to 165 °C. Work on `O=c1c2cnc3ccc(C(F)(F)F)cc3c2on1-c1ccccc1` yielded a melting point of 175 °C. `COc1nc(=O)n(-c2ccc(Cl)cc2)c(=O)[nH]1` showed a melting point of 238 to 241 °C. `O=C(Nc1cccc(Cc2ccccc2)c1)N1CCc2c(cnc3[nH]ncc23)C1` showed a melting point of 175 to 178 °C. `CC(=O)C(=[N+]=[N-])S(=O)(=O)C(C)C` showed a melting point of 53 to 55 °C. `Cc1cccc(C)c1NC(=O)CCS(=O)c1cc(C(C)(C)C)c(O)c(C(C)(C)C)c1` (configuration not stated) showed a melting point of 162 to 164 °C. Molecule `CC(=O)Nc1ccc2c(c1)c(-c1cc3cccnc3[nH]1)cn2C` has a melting point of 220 to 221 °C. With `CCc1ccc2c(c1)C=Cc1cc(C)ccc1C2c1cn(-c2ccnc(N3CCCC3C(=O)O)n2)c(=O)[nH]c1=O` (configuration not stated) the melting point was 185 °C. For `CCCCCCCC(=O)c1ccc(CCC(C)(COC(C)=O)NC(C)=O)cc1` (configuration not stated), the melting point was 88 to 89 °C. For `CCCCCCCCCCCCCCCCCCCC(=O)OCC(O)COC(=O)CCCCCCCCCCCCCCCCCCC`, the melting point was 83 to 84 °C. `COc1cc2c(Nc3ccc(Sc4nccn4C)c(Cl)c3)c(C#N)cnc2cc1-c1ccc(CN2CCOCC2)c(CN2CCOCC2)c1` gave a melting point of 228 to 230 °C. `O=CNC1CCCc2sc(Br)cc21` (configuration not stated) gave a melting point of 104 to 108 °C. With `Nc1nc(Cl)c2ncn(C3C=CC(O)C3)c2n1` (configuration not stated) the melting point was 160 to 162 °C. For `CCOC(=O)C(C)NNc1cc(F)cc(F)c1` (configuration not stated), the melting point was 139 to 141 °C. For `COc1ccc(C=O)c(OCCO)c1`, the melting point was 94 °C. For `CN(C)C(=O)NCc1cccc2c1CN(C1CCC(=O)NC1=O)C2=O` (configuration not stated), the melting point was 169 to 171 °C. `CCOC(=O)c1cnc2c(C)csc2c1NCc1ccccc1` gave a melting point of 99 to 100 °C. In the case of `O=C(O)c1cnc2c3ccccc3c(O)cn2c1=O`, the melting point is reported as 273 to 276 °C. Work on `CCC(Cl)(CC)C(CO)N=O` (configuration not stated) yielded a melting point of 130 °C. For `NC1=NC(c2cccc(-c3cccnc3F)c2)C2=NC(c3ccc(OC(F)F)cc3)C3(CCC3)CN12` (configuration not stated), the melting point was 220 to 226 °C. `COC(=O)CCn1c2ccc(O)cc2c2c3c(c(-c4ccccc4Cl)cc21)C(=O)NC3=O` showed a melting point of 218 to 220 °C. In the case of `Cc1c(C)c2c(c(C)c1O)CCC(C)(CCOC(=O)C(C)c1ccc(-c3ccccc3)c(F)c1)O2` (configuration not stated), the melting point is reported as 85 to 87 °C. `Cc1n[nH]c2ccccc12` gave a melting point of 110 to 113 °C. `N#CCNc1cn(-c2cccnc2)nc1Cl` showed a melting point of 141 to 143 °C. In the case of `COc1ccc(NC(=O)c2ccc(C)cc2O)cc1`, the melting point is reported as 185 to 186 °C. Molecule `CC(C)n1nc(-c2sc(NC(=O)c3cccc(F)c3)nc2-c2ccccc2)ccc1=O` has a melting point of 183 to 184 °C. `COc1ccc(-c2nc3cc(F)ccc3s2)cc1OC(=O)c1ccccc1` showed a melting point of 160 °C. For `O=NN1CCc2cc(Cl)ccc21`, the melting point was 120 to 122 °C. In the case of `CN1C(=O)CN=C(c2ccccc2F)c2cc(NC(=O)NCCO)ccc21`, the melting point is reported as 156 to 160 °C. In the case of `Cc1oc(C=Cc2cccc(Cl)c2)nc1CC(=O)O`, the melting point is reported as 214 to 215 °C. In the case of `Oc1ccc(C2CCc3ccc(O)cc3O2)cc1` (configuration not stated), the melting point is reported as 110 to 111 °C. For `O=C(O)c1cnc2ncnn2c1S`, the melting point was 247 to 249 °C. In the case of `CC(C)Cc1cc2cc(OCC(=O)O)c(Cl)c(Cl)c2s1`, the melting point is reported as 164 to 165 °C. Work on `CC(C(=O)O)N1CCC(C)(CS)C1=O` (configuration not stated) yielded a melting point of 132 to 133 °C. `O=c1cc(CO)n(Cc2ccccc2)cc1OCc1ccccc1` gave a melting point of 146 to 147 °C. `COc1ccc(-c2cc3cc(OC)cc([N+](=O)[O-])c3o2)cc1` showed a melting point of 141 °C. For `CC/C(=C\CCC(O)(CC)CC)c1cc(COc2ccc(CO)c(CO)c2)cs1`, the melting point was 63 to 64 °C. In the case of `Cn1nc(-c2ccc(Cl)cc2)cc1N=Cc1ccsc1`, the melting point is reported as 130 °C. For `FC(F)(F)Sc1ncn(-c2c(Cl)cc(C(F)(F)F)cc2Cl)c1Br`, the melting point was 87.5 °C. For `Cc1c(N2CC[C@H](CNC3CC3)C2)c(F)cc2c(=O)c(C(=O)O)cn([C@@H]3C[C@@H]3F)c12`, the melting point was 163 to 164 °C. `CC(=O)c1nc(-c2ccccc2)oc1C` showed a melting point of 74 to 76 °C. With `Cc1c(-c2ccc(C#N)cc2)c(C#N)c(C2CC2)n1Cc1cnc(Cl)c(CO)c1` the melting point was 193 to 194 °C. Work on `O=C(CC(F)=C(F)F)NS(=O)(=O)C(F)(F)F` yielded a melting point of 115 to 120 °C. With `CC(C)(C)OC(=O)NC(Cc1c[nH]c2ccccc12)C(=O)C=Cc1cc(C(F)(F)F)cc(C(F)(F)F)c1` (configuration not stated) the melting point was 137 to 138 °C. In the case of `COC(=O)Cn1c(=O)c2ccccc2n(CCCCCl)c1=O`, the melting point is reported as 119 to 120 °C. With `COC(=O)CN(CC(=O)OC)c1cccc([N+](=O)[O-])c1` the melting point was 54 to 57 °C. For `CC(C)(C)c1ccc(/C=N/OCc2ccc(C(=O)O)c(Br)c2)cc1`, the melting point was 162 to 163 °C. Work on `COc1cccc(Oc2ccc3ccc(-c4cc(OC)ccc4C(N)=O)nc3n2)c1` yielded a melting point of 150 °C. Molecule `Clc1ccc2[nH]cc(C3=CCC4(CC3)OCCO4)c2c1` has a melting point of 178 to 181 °C. `Nc1nc(=O)n(C2OC(CO)CC2F)cc1F` (configuration not stated) gave a melting point of 209 to 210 °C. In the case of `Cc1cccc(NC(=O)NCC(=O)N2[C@@H](C(=O)N(C)c3ccccc3)CC[C@H]2c2ccccc2)c1` (racemic), the melting point is reported as 210 °C. `Cc1cccc2nc(NC(=O)c3ccc(C(C)(C)C)cc3)cn12` gave a melting point of 204 to 205 °C. In the case of `COc1ccc(CNc2nc(N3CCC(C(=O)O)CC3)nc3sc(Cl)cc23)cc1Cl`, the melting point is reported as greater than 250 °C. In the case of `CCOC(=O)c1cn2c3c(cc(F)cc3c1=O)C(=O)CC2C` (configuration not stated), the melting point is reported as 262 to 265 °C. Molecule `C[C@H]1C[C@@H](Nc2ccccc2)c2ccccc2N1C(=O)c1ccccn1` (relative stereo) has a melting point of 157 °C. `COc1ccccc1CN[C@H]1CCCN(Cc2ccccc2)[C@H]1c1ccccc1` (relative stereo) gave a melting point of 68 to 70 °C. With `CC1SC(=O)NN=C1c1ccc2c(c1)C(=Nc1ccc(N(C)C)cc1)C(=O)N2` (configuration not stated) the melting point was 261 °C. Work on `CC(C)CCCSC1c2ccccc2C(=O)N1c1ccc2ccc(Cl)nc2n1` (configuration not stated) yielded a melting point of 141 °C. Work on `CNC(NCCSCc1nccc(NC(N)=NCC(F)(F)F)n1)=C(C#N)C#N` yielded a melting point of 173 to 174 °C. With `CCCCc1nc2c(N)nc3ccc(O)cc3c2n1CCCCNS(=O)(=O)c1ccccc1` the melting point was 219 to 223 °C. `CCN(C)C(=O)c1ccc(N2CCN(Cc3cnc4c(c3)NC(=O)[C@@H]3CCCN43)CC2)cc1` gave a melting point of 91.9 °C. Molecule `O=c1n(-c2cc(OCCCl)c(Cl)cc2Cl)nc2n1CCCC2` has a melting point of 148 to 150 °C. Work on `CCOC(=O)c1ccc(-n2ccnc2C)cc1` yielded a melting point of 72 to 73 °C. `N#CSCCNc1ccc(C(F)(F)F)cc1[N+](=O)[O-]` gave a melting point of 115 to 117 °C. In the case of `CON=C(C)CN(C(=O)c1ccco1)c1c(C)cccc1C`, the melting point is reported as 108 to 109 °C. `CCNC(=O)CCCC1CCN(Cc2cnc3cc(NC(=O)c4ccc(-c5ccc(F)cc5)cc4)ccc3c2)CC1` showed a melting point of 209 to 213 °C. `COc1cc2c(Nc3ccc(Sc4nccn4C)c(Cl)c3)c(C#N)cnc2cc1NCCCN(C)C` showed a melting point of 198 to 200 °C. Molecule `CCn1cc(C(=O)O)c(=O)c2cc(F)c(N3CCCC(CN)C3)nc21` (configuration not stated) has a melting point of 120 to 122 °C. In the case of `CCCCc1ncc(/C=C2\C(=O)NC(=O)N2CCC(C)C)n1Cc1ccc(C(=O)O)cc1`, the melting point is reported as 143 to 146 °C. `CCCNC(=O)C1(CCCCO)c2ccccc2-c2ccccc21` showed a melting point of 73 to 75 °C.
